Legend:
Type in all cases: in vivo, human (obese patients, average BMI=33)
PD1 = experiment: Slimming study: blood level of anti-inflammatory marker PD1; settings: day 60; control group reduced by 36%
Method: (§1) A study under medical supervision was conducted among obese patients (average BMI=33). The subjects were separated into two groups: • a “control” group consuming food compositions similar to those of the invention but without DHA; and • a “study” group consuming food compositions according to the invention comprising DHA.
At the start of the program as well as after 30 days if necessary, then 60 days and at the end of 6 months the subjects underwent a blood test in order to evaluate their levels of pro-inflammatory and anti-inflammatory markers depending on their increase or loss of weight. The markers or molecules indicating the presence of inflammation that were tested for were leucocytes, neutrophils, the reactive protein C (PRC), TNF-α, interleukin 6, leptin, resistin and adiponectin. […]

[1] = system: ultrasensitive reactive protein C (PRCus); experiment: Slimming study: blood level of ultrasensitive reactive protein C; settings: DHA every day during slimming diet (FIG. 3); control group 12%
Method: as §1
At the start of the program as well as after 30 days if necessary, then 60 days and at the end of 6 months the subjects underwent a blood test in order to evaluate their levels of pro-inflammatory and anti-inflammatory markers depending on their increase or loss of weight. The markers or molecules indicating the presence of inflammation that were tested for were leucocytes, neutrophils, the reactive protein C (PRC), TNF-α, interleukin 6, leptin, resistin and adiponectin.
For the first 60 days of the study, the patients in the study group each received 500 mg of DHA per day solely through the consumption of food compositions and portions according to the invention. Their calorie intake was below 800 kcals per day and was presented chiefly in the form of food compositions or portions according to the invention. […]
It can be seen from FIGS. 3 and 4 that there was a diminishing of the pro-inflammatory markers. Two inflammation markers associated with obesity were tested for and their levels were measured: these were ultrasensitive reactive protein C (PRCus) and leptin.

[2] = Slimming study under medical supervision: weight loss and waistline
Method: as §1
For the first 60 days of the study, the patients in the study group each received 500 mg of DHA per day solely through the consumption of food compositions and portions according to the invention. Their calorie intake was below 800 kcals per day and was presented chiefly in the form of food compositions or portions according to the invention. To be more precise, the patients consumed five food portions according to the invention during the day, two of them during the main meals where the portions were accompanied by vegetables in order to ensure their DHA intake especially. […] The goal was to re-educate the patient in terms of food intake. Traditional foods were gradually re-introduced into the patient's daily food intake in order to avoid deficiency and fatigue as well as to re-educate him or her on the food intake level.
The progress of the waistline measurements in the two groups of patients is shown in the graph of FIG. 2. The waistline measurement makes it possible to evaluate loss of abdominal fat, a parameter associated with the metabolic syndrome. […]

## CC/C=C\C/C=C\C/C=C\C/C=C\C/C=C\C/C=C\CCC(=O)O [DHA, docosahexaenoic acid]
PD1
  change of PD1 level as compared with day 0: +83%
[1]
  reduction of PRC rate: approximately 18%
[2]; 6 months (D-180) from D-0, same figure stated for both groups
  average weight loss: about 20 kg
[2]; end of 60 days, same figure stated for each group
  average loss in waistline measurement: about 15 cm

Reference: US20160324818A1, “DIET FOOD COMPOSITION INCLUDING DHA TO REDUCE SHORT-TERM AND LONG-TERM LOW-GRADE INFLAMMATION” (PRI S.A., priority 2013, published 2016)
